Test results as given in patent publication US20240124418A1 (BioTheryX, Inc., priority 2020, published 2024).

Test system: TNF-α
Assay: Cell-based TNF-α inhibition assay (LPS-induced PBMCs, Meso Scale)
Conditions: PBMC, PBMCs pretreated 1 h, LPS 100 ng/mL 18-24 h, percentage of stimulated DMSO control; for inhibition at 0.1 µM: compound concentration 0.1 μM; for inhibition at 1 µM: compound concentration 1 μM
Experimental: Example B1. Cell-Based TNF-α Inhibition Assay
Frozen primary blood mononuclear cells (PBMCs) were quick thawed, washed once with RPMI 1640 media supplemented with 10% fetal bovine serum, 1% penicillin, and 1% streptomycin, and plated in a 96 well plate at 200,000 cells per well. The cells were pretreated with DMSO only as a control or a compound for 1 h, and then induced with LPS (lipopolysaccharide) (100 ng/mL) for 18-24 h. The supernatant was analyzed for TNF-α using the Meso Scale assay. Compound activity was determined as a percentage of the stimulated DMSO control. The results are summarized in Table 1, where A represents a percent inhibition value ≥60%; B represents a percent inhibition value <60% and ≥40%; C represents a percent inhibition value <40% and ≥20%; and D represents a single percent inhibition value <20%.

SMILES	inhibition at 0.1 µM	inhibition at 1 µM
CCOc1cc([C@@H](CS(C)(=O)=O)N2C(=O)c3cc(C#CCCCCCN4CCC(c5cc(F)cc6c5CN(C5CCC(=O)NC5=O)C6=O)CC4)cc(NC(C)=O)c3C2=O)ccc1OC (stereo partly drawn) [Compound A2, N-(6-(7-(4-(2-(2,6-Dioxopiperidin-3-yl)-6-fluoro-1-oxoisoindolin-4-yl)-piperidin-1-yl)hept-1-yn-1-yl)-2-((S)-1-(3-ethoxy-4-methoxyphenyl)-2-(methylsulfonyl)ethyl)-1,3-dioxoisoindolin-4-yl)acetamide]	≥ 60%	–
CCOc1cc([C@@H](CS(C)(=O)=O)N2C(=O)c3cc(CCCN4CCC(c5cc(F)cc6c5CN(C5CCC(=O)NC5=O)C6=O)CC4)cc(NC(C)=O)c3C2=O)ccc1OC (stereo partly drawn) [Compound A5, N-(6-(3-(4-(2-(2,6-Dioxopiperidin-3-yl)-6-fluoro-1-oxoisoindolin-4-yl)piperidin-1-yl)propyl)-2-((S)-1-(3-ethoxy-4-methoxyphenyl)-2-(methylsulfonyl)ethyl)-1,3-dioxoisoindolin-4-yl)acetamide]	≥ 60%	–
CCOc1cc([C@@H](CS(C)(=O)=O)N2C(=O)c3cccc(NC(=O)CCCCCCCCNCc4ccc(COc5cccc6c5CN(C5CCC(=O)NC5=O)C6=O)cc4)c3C2=O)ccc1OC (stereo partly drawn) [Compound A16, 9-({[4-({[2-(2,6-Dioxopiperidin-3-yl)-1-oxo-2,3-dihydro-1H-isoindol-4-yl]oxy}-methyl)phenyl]methyl}amino)-N-{2-[(1S)-1-(3-ethoxy-4-methoxyphenyl)-2-methanesulfonylethyl]-1,3-dioxo-2,3-dihydro-1H-isoindol-4-yl}nonanamide]	≥ 60%	≥ 60%
CCOc1cc([C@@H](CS(C)(=O)=O)N2C(=O)c3c(CCCCCCCCCCCCN4CCC(c5cc(F)cc6c5CN(C5CCC(=O)NC5=O)C6=O)CC4)ccc(NC(C)=O)c3C2=O)ccc1OC (stereo partly drawn) [Compound A17, N-[7-(12-{4-[2-(2,6-Dioxopiperidin-3-yl)-6-fluoro-1-oxo-2,3-dihydro-1H-isoindol-4-yl]piperidin-1-yl}dodecyl)-2-[(1S)-1-(3-ethoxy-4-methoxyphenyl)-2-methanesulfonylethyl]-1,3-dioxo-2,3-dihydro-1H-isoindol-4-yl]acetamide]	≥ 60%	≥ 60%
CCOc1cc([C@@H](CS(C)(=O)=O)N2C(=O)c3c(N)ccc(CCCCCCCCCCCCN4CCC(c5cc(F)cc6c5CN(C5CCC(=O)NC5=O)C6=O)CC4)c3C2=O)ccc1OC (stereo partly drawn) [Compound A18, 4-Amino-7-(12-{4-[2-(2,6-Dioxopiperidin-3-yl)-6-fluoro-1-oxo-2,3-dihydro-1H-isoindol-4-yl]piperidin-1-yl}dodecyl)-2-[(1S)-1-(3-ethoxy-4-methoxyphenyl)-2-methanesulfonylethyl]-2,3-dihydro-1H-isoindole-1,3-dione]	≥ 60%	≥ 60%
CCOc1cc([C@@H](CS(C)(=O)=O)N2C(=O)c3cccc(NC(=O)CCCCCCCCn4cc(-c5cc6c(cc5F)C(=O)N(C5CCC(=O)NC5=O)C6)nn4)c3C2=O)ccc1OC (stereo partly drawn) [Compound A23, 9-{4-[2-(2,6-Dioxopiperidin-3-yl)-6-fluoro-1-oxo-2,3-dihydro-1H-isoindol-5-yl]-1H-1,2,3-triazol-1-yl}-N-{2-[(1S)-1-(3-ethoxy-4-methoxyphenyl)-2-methanesulfonylethyl]-1,3-dioxo-2,3-dihydro-1H-isoindol-4-yl}nonanamide]	≥ 60%	≥ 60%
CCOc1cc([C@@H](CS(C)(=O)=O)N2C(=O)c3cccc(NC(=O)CCCc4cn(CCN5CCC(c6cc7c(cc6F)C(=O)N(C6CCC(=O)NC6=O)C7)CC5)nn4)c3C2=O)ccc1OC (stereo partly drawn) [Compound A24, 4-[1-(2-{4-[2-(2,6-Dioxopiperidin-3-yl)-6-fluoro-1-oxo-2,3-dihydro-1H-isoindol-5-yl]piperidin-1-yl}ethyl)-1H-1,2,3-triazol-4-yl]-N-{2-[(1S)-1-(3-ethoxy-4-methoxyphenyl)-2-methanesulfonylethyl]-1,3-dioxo-2,3-dihydro-1H-isoindol-4-yl}butanamide]	≥ 60%	≥ 60%
CCOc1cc([C@@H](CS(C)(=O)=O)N2C(=O)c3cccc(NCCCCCCCCCN4CCC(c5cc6c(cc5F)C(=O)N(C5CCC(=O)NC5=O)C6)CC4)c3C2=O)ccc1OC (stereo partly drawn) [Compound A25, 4-[(9-{4-[2-(2,6-Dioxopiperidin-3-yl)-6-fluoro-1-oxo-2,3-dihydro-1H-isoindol-5-yl]piperidin-1-yl}nonyl)amino]-2-[(1S)-1-(3-ethoxy-4-methoxyphenyl)-2-methanesulfonylethyl]-2,3-dihydro-1H-isoindole-1,3-dione]	≥ 60%	≥ 60%
CCOc1cc([C@@H](CS(C)(=O)=O)N2C(=O)c3cccc(NC(=O)CCCCCCCCN4CCC(c5ccc6c(c5)CN(C5CCC(=O)NC5=O)C6=O)CC4)c3C2=O)ccc1OC (stereo partly drawn) [Compound A26, 9-{4-[2-(2,6-Dioxopiperidin-3-yl)-1-oxo-2,3-dihydro-1H-isoindol-5-yl]piperidin-1-yl}-N-{2-[(1S)-1-(3-ethoxy-4-methoxyphenyl)-2-methanesulfonylethyl]-1,3-dioxo-2,3-dihydro-1H-isoindol-4-yl}nonanamide]	≥ 60%	≥ 60%
CCOc1cc([C@@H](CS(C)(=O)=O)N2C(=O)c3cccc(CCCCCCCCCCN4CCC(c5cc6c(cc5F)C(=O)N(C5CCC(=O)NC5=O)C6)CC4)c3C2=O)ccc1OC (stereo partly drawn) [Compound A27, 4-(10-{4-[2-(2,6-Dioxopiperidin-3-yl)-6-fluoro-1-oxo-2,3-dihydro-1H-isoindol-5-yl]piperidin-1-yl}decyl)-2-[(1S)-1-(3-ethoxy-4-methoxyphenyl)-2-methanesulfonylethyl]-2,3-dihydro-1H-isoindole-1,3-dione]	≥ 60%	≥ 60%
CCOc1cc([C@@H](CS(C)(=O)=O)N2C(=O)c3cccc(NC(=O)CN4CCN(CCCCN5CCC(c6cc7c(cc6F)C(=O)N(C6CCC(=O)NC6=O)C7)CC5)CC4)c3C2=O)ccc1OC (stereo partly drawn) [Compound A28, 2-[4-(4-{4-[2-(2,6-Dioxopiperidin-3-yl)-6-fluoro-1-oxo-2,3-dihydro-1H-isoindol-5-yl]piperidin-1-yl}butyl)piperazin-1-yl]-N-{2-[(1S)-1-(3-ethoxy-4-methoxyphenyl)-2-methanesulfonylethyl]-1,3-dioxo-2,3-dihydro-1H-isoindol-4-yl}acetamide]	40 to 60%	≥ 60%
CCOc1cc([C@@H](CS(C)(=O)=O)N2C(=O)c3cccc(NC(=O)CCCCCN4CCC(N5CCC(c6cc7c(cc6F)C(=O)N(C6CCC(=O)NC6=O)C7)CC5)CC4)c3C2=O)ccc1OC (stereo partly drawn) [Compound A29, 6-{4-[2-(2,6-Dioxopiperidin-3-yl)-6-fluoro-1-oxo-2,3-dihydro-1H-isoindol-5-yl]-[1,4′-bipiperidin]-1′-yl}-N-{2-[(1S)-1-(3-ethoxy-4-methoxyphenyl)-2-methanesulfonylethyl]-1,3-dioxo-2,3-dihydro-1H-isoindol-4-yl}hexanamide]	40 to 60%	≥ 60%
CCOc1cc([C@@H](CS(C)(=O)=O)N2C(=O)c3cccc(NC(=O)CCCCCCNCc4ccc(OCc5scc6c5CN([C@H]5CCC(=O)NC5=O)C6=O)cc4)c3C2=O)ccc1OC [Compound A38, 7-((4-((5-((S)-2,6-Dioxopiperidin-3-yl)-4-oxo-5,6-dihydro-4H-thieno[3,4-c]pyrrol-1-yl)methoxy)benzyl)amino)-N-(2-((S)-1-(3-ethoxy-4-methoxyphenyl)-2-(methylsulfonyl)ethyl)-1,3-dioxoisoindolin-4-yl)heptanamide]	≥ 60%	–
CCOc1cc([C@@H](CS(C)(=O)=O)N2C(=O)c3cccc(NC(=O)CCCCNCc4ccc(OCc5scc6c5CN(C5CCC(=O)NC5=O)C6=O)cc4)c3C2=O)ccc1OC (stereo partly drawn) [Compound A39, 5-((4-((5-(2,6-Dioxopiperidin-3-yl)-4-oxo-5,6-dihydro-4H-thieno[3,4-c]pyrrol-1-yl)methoxy)benzyl)amino)-N-(2-((S)-1-(3-ethoxy-4-methoxyphenyl)-2-(methylsulfonyl)ethyl)-1,3-dioxoisoindolin-4-yl)pentanamide]	≥ 60%	–
CCOc1cc([C@@H](CS(C)(=O)=O)N2C(=O)c3cccc(NC(=O)CCCN4CCN(CCNCc5ccc(OCc6scc7c6CN(C6CCC(=O)NC6=O)C7=O)cc5)CC4)c3C2=O)ccc1OC (stereo partly drawn) [Compound A45, 4-[4-(2-{[(4-{[5-(2,6-Dioxopiperidin-3-yl)-4-oxo-4H,5H,6H-thieno[3,4-c]pyrrol-1-yl]methoxy}phenyl)methyl]amino}ethyl)piperazin-1-yl]-N-{2-[(1S)-1-(3-ethoxy-4-methoxy-phenyl)-2-methanesulfonylethyl]-1,3-dioxo-2,3-dihydro-1H-isoindol-4-yl}butanamide]	≥ 60%	≥ 60%
CCOc1cc([C@@H](CS(C)(=O)=O)N2C(=O)c3cccc(NC(=O)CCCCCCCCCCN(C)Cc4ccc(OCc5scc6c5CN(C5CCC(=O)NC5=O)C6=O)cc4)c3C2=O)ccc1OC (stereo partly drawn) [Compound A46, 11-{[(4-{[5-(2,6-Dioxopiperidin-3-yl)-4-oxo-4H,5H,6H-thieno[3,4-c]pyrrol-1-yl]methoxy}phenyl)methyl](methyl)amino}-N-{2-[(1S)-1-(3-ethoxy-4-methoxyphenyl)-2-methanesulfonylethyl]-1,3-dioxo-2,3-dihydro-1H-isoindol-4-yl}undecanamide]	≥ 60%	≥ 60%
CCOc1cc([C@@H](CS(C)(=O)=O)N2C(=O)c3cccc(NC(=O)CCCCCCC4CN(Cc5ccc(OCc6scc7c6CN(C6CCC(=O)NC6=O)C7=O)cc5)CCO4)c3C2=O)ccc1OC (stereo partly drawn) [Compound A47]	≥ 60%	≥ 60%
